# Source: patent US20250296960A1, “PEPTIDE COMPOSITIONS AND METHODS OF USE THEREOF” (priority 2022, published 2025)
# Where two headings read alike, the source gives them in different places. Numbered stars: 1 amine (or outer) side, 2 acyl side, 3 side chain; on linkers, the order of the positions; unused ones are H or OH. Square brackets hold non-standard residues; d marks the D form. Side chains are listed from the residue outwards. Ends that are not written are not given here. Peptide text beside a SMILES is read from it. * marks the point of attachment. C18 = C18 fatty acid (C16-C22 fatty acids conjugated via γGlu/8-amino-3,6-dioxaoctanoic acid spacers); Biotin = O=C1N[C@H]2[C@H](CS[C@H]2CCCCC(=O)*)N1; C18 diacid = O=C(O)CCCCCCCCCCCCCCCCC(=O)*; γGlu = O=C(O)[C@H](CCC(=O)[*:2])N[*:1]; AEEA = NCCOCCOCC(=O)O; Aib = CC(C)(N)C(=O)O
# Key:
# [1] = Body weight loss in normal C57BL/6 mice, subcutaneous dosing; type: in vivo; conditions: normal mice; 20 nmol/kg QD; Weight loss at 48 hr
# [2] = In vivo efficacy in mAMLN (NASH) mice, 2 weeks; conditions: for blood glucose, in words / body weight, in words: 20 nmol/kg s.c. Q2D, 2 weeks; for hepatic triglyceride content, in words / liver weight, in words / mRNA levels of TGF-β1 (inflammation marker) and ACTA2 (fibrosis marker), in words: end of treatment
# [3] = Intestinal absorption / PK after intraduodenal administration of oral formulation in rats, serum LC-MS/MS; conditions: rat, in vivo, 300 nmol/kg
# Description: This study was conducted to evaluate the intestinal absorption of peptides following enteral administration of oral pharmaceutical formulations. The pharmaceutical formulation was administered in a form of suspensions by intraduodenal (ID) injection in rats. SEQ ID_87, 89 and 90 was accurately weighed and dissolved in 10 mM PBS containing polysorbate 80 (pH 7.4, vehicle I). The mixture was vortexed for 5 min to get a clear solution. Then, 2.5 mL of vehicle was added to the mixture and vortexed for 30 min to get homogenous opaque suspension. The composition of Vehicle II was sodium chenodeoxycholate, and propyl gallate in polysorbate 80 in PBS. The animals were not fasted prior to dosing. 0.2˜ 0.4 mL of whole blood was taken from vein at each time point (0, 0.167, 0.5, 1, 2, 4, 8, 24, and 48 hrs after IV or ID administration). The collected whole blood was incubated at room temperature for 20 min and tubes were centrifugated at 13,000 rpm for 10 min at 4° C. The resulting serum 0.1˜ 0.2 mL was transferred into the tube and stored at −70° C. until analysis. The concentrations of peptides in serum were determined by LC-MS/MS analysis. PK parameters were analyzed by non-compartmental analysis using Phoenix WinNonlin 5.0.1. software (Pharsight Corporation, Mountain View, CA, USA).
Compound,Weight loss (%) [1] [%],"blood glucose, in words [2]","body weight, in words [2]","hepatic triglyceride content, in words [2]","liver weight, in words [2]","mRNA levels of TGF-β1 (inflammation marker) and ACTA2 (fibrosis marker), in words [2]",AUC(0-inf) [3] [ng·h/mL],Cmax [3] [ng/mL],MRT inf [3] [h],Tmax [3] [h],half-life [3] [h],"AUC(0-inf) ([3]; rats, single intraduodenal administration, oral formulation suspension, serum, mean ± SD, read-out: AUCinf) [ng·h/mL]","Cmax ([3]; rats, single intraduodenal administration, oral formulation suspension, serum, mean ± SD, read-out: Cmax) [ng/mL]","MRT inf ([3]; rats, single intraduodenal administration, oral formulation suspension, serum, mean ± SD, read-out: MRTinf) [h]","Tmax ([3]; rats, single intraduodenal administration, oral formulation suspension, serum, mean ± SD, read-out: Tmax) [h]","half-life ([3]; rats, single intraduodenal administration, oral formulation suspension, serum, mean ± SD, read-out: t1/2 (converted)) [h]"
"HAibQGT FTSDY SK*YLD YMMARDFVQWLIEGGPSSGAPPPS (H[Aib]QGTFTSDYSK([AEEA-AEEA-γGlu-C18])YLDYMMARDFVQWLIEGGPSSGAPPPS-NH2) [5D, K* = lysine lipidated with 2OEG-γGlu-C18]",19.4 ± 2.2,reduce blood glucose,reduce body weight,reduce hepatic triglyceride content,reduce liver weight,reduce both TGF-β1 and ACTA2,–,–,–,–,–,–,–,–,–,–
"CSCC[C@H](NC(=O)[C@H](CCCCNC(=O)CCCC[C@@H]1SC[C@@H]2NC(=O)N[C@@H]21)NC(=O)[C@H](Cc1ccc(O)cc1)NC(=O)[C@H](CC(=O)O)NC(=O)[C@H](CC(C)C)NC(=O)[C@H](CC(C)C)NC(=O)[C@H](CCCCNC(=O)COCCOCCNC(=O)COCCOCCNC(=O)CC[C@H](NC(=O)CCCCCCCCCCCCCCCCC(=O)O)C(=O)O)NC(=O)[C@H](CO)NC(=O)[C@H](Cc1ccc(O)cc1)NC(=O)[C@H](CC(=O)O)NC(=O)[C@H](CO)NC(=O)[C@@H](NC(=O)[C@H](Cc1ccccc1)NC(=O)[C@@H](NC(=O)CNC(=O)[C@H](CCC(N)=O)NC(=O)C(C)(C)NC(=O)[C@@H](N)Cc1ccc(O)cc1)[C@@H](C)O)[C@@H](C)O)C(=O)N[C@@H](CCC(N)=O)C(=O)N[C@@H](CCCNC(=N)N)C(=O)N[C@@H](CC(=O)O)C(=O)N[C@@H](Cc1ccccc1)C(=O)N[C@H](C(=O)N[C@@H](CCC(N)=O)C(=O)N[C@@H](Cc1c[nH]c2ccccc12)C(=O)N[C@@H](CC(C)C)C(=O)N[C@@H](CC(C)C)C(=O)N[C@@H](CCC(=O)O)C(=O)NCC(=O)NCC(=O)N1CCC[C@H]1C(=O)N[C@@H](CO)C(=O)N[C@@H](CO)C(=O)NCC(=O)N[C@@H](C)C(=O)N1CCC[C@H]1C(=O)N1CCC[C@H]1C(=O)N1CCC[C@H]1C(=O)N[C@@H](CO)C(N)=O)C(C)C [SEQ ID NO. 87, YAibQGT FTSDY SK*LLD YB*MQR DFVQW LLEGG PSSGA PPPS] (H-Y[Aib]QGTFTSDYSK([AEEA-AEEA-γGlu-C18 diacid])LLDYK(Biotin)MQRDFVQWLLEGGPSSGAPPPS-NH2; N-terminus and C-terminus assumed)",–,–,–,–,–,–,1860,290 ± 110,8.19 ± 1.92,0.25 ± 0.17,6.17 ± 1.36,–,–,–,–,–
"YAibQGT FTSDY SK*YLD YMMQRDFVQWLIEGGPSSGAPPPS (Y[Aib]QGTFTSDYSK([AEEA-AEEA-γGlu-C18])YLDYMMQRDFVQWLIEGGPSSGAPPPS-NH2) [5-2D, K* = lysine lipidated with 2OEG-γGlu-C18]",16.6 ± 0.9,reduce blood glucose,reduce body weight,reduce hepatic triglyceride content,reduce liver weight,reduce both TGF-β1 and ACTA2,–,–,–,–,–,–,–,–,–,–
"YAibQGT FTSDY SK*LLD YMMQRDFVQWLLEGGPSSGAPPPS (Y[Aib]QGTFTSDYSK([AEEA-AEEA-γGlu-C18])LLDYMMQRDFVQWLLEGGPSSGAPPPS-NH2) [5-3D, K* = lysine lipidated with 2OEG-γGlu-C18]",7.6 ± 1.3,reduce blood glucose,reduce body weight,reduce hepatic triglyceride content,reduce liver weight,reduce both TGF-β1 and ACTA2,–,–,–,–,–,–,–,–,–,–
"YAibQGT FTSDY SK*YLD YMMARDFVQWLIEGGPSSGAPPPS (Y[Aib]QGTFTSDYSK([AEEA-AEEA-γGlu-C18])YLDYMMARDFVQWLIEGGPSSGAPPPS-NH2) [5-1D, K* = lysine lipidated with 2OEG-γGlu-C18]",16.7 ± 1.3,reduce blood glucose,reduce body weight,reduce hepatic triglyceride content,reduce liver weight,reduce both TGF-β1 and ACTA2,–,–,–,–,–,–,–,–,–,–
CSCC[C@H](NC(=O)[C@H](Cc1ccc(O)cc1)NC(=O)[C@H](CC(=O)O)NC(=O)[C@H](CC(C)C)NC(=O)[C@H](CC(C)C)NC(=O)[C@H](CCCCNC(=O)COCCOCCNC(=O)COCCOCCNC(=O)CC[C@H](NC(=O)CCCCCCCCCCCCCCCCC(=O)O)C(=O)O)NC(=O)[C@H](CO)NC(=O)[C@H](Cc1ccc(O)cc1)NC(=O)[C@H](CC(=O)O)NC(=O)[C@H](CO)NC(=O)[C@@H](NC(=O)[C@H](Cc1ccccc1)NC(=O)[C@@H](NC(=O)CNC(=O)[C@H](CCC(N)=O)NC(=O)C(C)(C)NC(=O)[C@@H](N)Cc1ccc(O)cc1)[C@@H](C)O)[C@@H](C)O)C(=O)N[C@@H](CCSC)C(=O)N[C@@H](CCC(N)=O)C(=O)N[C@@H](CCCNC(=N)N)C(=O)N[C@@H](CC(=O)O)C(=O)N[C@@H](Cc1ccccc1)C(=O)N[C@H](C(=O)N[C@@H](CCCCNC(=O)CCCC[C@@H]1SC[C@@H]2NC(=O)N[C@@H]21)C(=O)N[C@@H](Cc1c[nH]c2ccccc12)C(=O)N[C@@H](CC(C)C)C(=O)N[C@@H](CC(C)C)C(=O)N[C@@H](CCC(=O)O)C(=O)NCC(=O)NCC(=O)N1CCC[C@H]1C(=O)N[C@@H](CO)C(=O)N[C@@H](CO)C(=O)NCC(=O)N[C@@H](C)C(=O)N1CCC[C@H]1C(=O)N1CCC[C@H]1C(=O)N1CCC[C@H]1C(=O)N[C@@H](CO)C(N)=O)C(C)C [SEQ ID_89] (H-Y[Aib]QGTFTSDYSK([AEEA-AEEA-γGlu-C18 diacid])LLDYMMQRDFVK(Biotin)WLLEGGPSSGAPPPS-NH2; N-terminus and C-terminus assumed),–,–,–,–,–,–,–,–,–,–,–,2790,332 ± 124,9.89 ± 3.91,0.43 ± 0.15,7.24 ± 2.05
